Tests used:
[1] = biological target: Phosphatidylinositol 4,5-bisphosphate 3-kinase catalytic subunit beta isoform (Homo sapiens, UniProt P42338); test: Inhibition of PI3Kbeta (unknown origin)
[2] = biological target: T1, Receptor-type tyrosine-protein kinase FLT3 (Homo sapiens, UniProt P36888); test: Inhibition of FLT3 (unknown origin)
T1 sequence (P36888 whole entry): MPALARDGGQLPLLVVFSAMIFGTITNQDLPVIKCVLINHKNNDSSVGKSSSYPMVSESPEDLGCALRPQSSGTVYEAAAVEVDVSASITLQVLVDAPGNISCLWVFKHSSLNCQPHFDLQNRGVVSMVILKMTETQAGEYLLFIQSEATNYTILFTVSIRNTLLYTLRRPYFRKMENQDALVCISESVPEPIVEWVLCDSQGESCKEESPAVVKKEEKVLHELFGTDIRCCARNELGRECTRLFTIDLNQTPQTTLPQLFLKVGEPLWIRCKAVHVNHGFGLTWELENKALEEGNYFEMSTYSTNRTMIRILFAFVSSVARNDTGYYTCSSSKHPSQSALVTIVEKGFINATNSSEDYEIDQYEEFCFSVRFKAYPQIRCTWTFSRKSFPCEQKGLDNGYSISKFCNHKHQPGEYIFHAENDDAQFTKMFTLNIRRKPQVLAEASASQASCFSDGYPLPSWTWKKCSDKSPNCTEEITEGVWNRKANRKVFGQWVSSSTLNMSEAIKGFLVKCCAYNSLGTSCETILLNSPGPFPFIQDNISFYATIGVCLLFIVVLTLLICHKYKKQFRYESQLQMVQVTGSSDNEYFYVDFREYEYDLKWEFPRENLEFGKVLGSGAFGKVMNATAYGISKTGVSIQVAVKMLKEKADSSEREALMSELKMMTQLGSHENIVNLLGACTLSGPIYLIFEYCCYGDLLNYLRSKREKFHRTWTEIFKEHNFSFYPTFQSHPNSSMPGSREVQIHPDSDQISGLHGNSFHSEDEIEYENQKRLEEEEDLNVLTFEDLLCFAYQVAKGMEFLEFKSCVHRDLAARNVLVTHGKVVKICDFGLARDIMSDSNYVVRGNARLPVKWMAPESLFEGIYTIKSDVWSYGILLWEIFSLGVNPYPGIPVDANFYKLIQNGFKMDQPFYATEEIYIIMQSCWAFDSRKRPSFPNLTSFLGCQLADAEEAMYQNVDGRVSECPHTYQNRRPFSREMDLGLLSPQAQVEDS

[3] = biological target: Rho-associated protein kinase (Homo sapiens, UniProt O75116+Q13464); test: Inhibition of ROCK (unknown origin); assay type: protein-complex assay
[4] = biological target: Vascular endothelial growth factor receptor 2 (Homo sapiens, UniProt P35968); test: Inhibition of KDR (unknown origin)
[5] = biological target: T2, Phosphatidylinositol 4,5-bisphosphate 3-kinase catalytic subunit delta isoform (Homo sapiens, UniProt O00329); test: Inhibition of PI3Kdelta (unknown origin)
T2 sequence (O00329 whole entry): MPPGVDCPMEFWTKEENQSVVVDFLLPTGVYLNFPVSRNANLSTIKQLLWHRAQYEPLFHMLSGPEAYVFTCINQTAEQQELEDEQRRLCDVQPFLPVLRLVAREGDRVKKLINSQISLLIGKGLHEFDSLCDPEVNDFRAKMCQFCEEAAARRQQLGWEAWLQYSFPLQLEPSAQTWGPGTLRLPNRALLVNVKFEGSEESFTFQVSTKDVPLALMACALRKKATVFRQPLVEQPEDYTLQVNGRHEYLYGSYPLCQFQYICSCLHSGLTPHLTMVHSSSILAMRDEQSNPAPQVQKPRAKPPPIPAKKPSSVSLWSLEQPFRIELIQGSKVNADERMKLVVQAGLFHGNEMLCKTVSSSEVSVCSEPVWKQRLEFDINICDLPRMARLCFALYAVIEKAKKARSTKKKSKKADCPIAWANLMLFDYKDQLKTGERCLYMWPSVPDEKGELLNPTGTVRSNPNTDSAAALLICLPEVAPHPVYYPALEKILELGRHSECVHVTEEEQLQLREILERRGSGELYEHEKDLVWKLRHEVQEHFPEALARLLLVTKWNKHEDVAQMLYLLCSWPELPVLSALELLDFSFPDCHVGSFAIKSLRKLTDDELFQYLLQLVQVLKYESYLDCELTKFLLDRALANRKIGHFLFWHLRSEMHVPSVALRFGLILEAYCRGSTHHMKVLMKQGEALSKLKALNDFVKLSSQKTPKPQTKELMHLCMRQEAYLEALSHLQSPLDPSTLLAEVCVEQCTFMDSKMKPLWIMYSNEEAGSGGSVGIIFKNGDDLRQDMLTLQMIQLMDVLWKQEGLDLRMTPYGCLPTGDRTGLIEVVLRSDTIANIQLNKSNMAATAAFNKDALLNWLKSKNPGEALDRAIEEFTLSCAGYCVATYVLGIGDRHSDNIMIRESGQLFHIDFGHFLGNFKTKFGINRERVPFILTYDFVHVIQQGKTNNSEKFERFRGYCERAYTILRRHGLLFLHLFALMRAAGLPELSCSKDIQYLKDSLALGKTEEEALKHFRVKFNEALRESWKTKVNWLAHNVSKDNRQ

[6] = tested on: Influenza A virus; test: Antiviral activity against influenza A virus A/PR/8/34 strain incubated with MDCK cells assessed as reduction of viral RNA level equal to 1% of control level after 72 hrs by branched DNA assay; assay type: functional, organism-based; settings: A/Puerto Rico/8/1934(H1N1)
[7] = Dissociation constant, pKa of the compound by UC titration method; assay type: physicochemical
[8] = biological target: Tyrosine-protein kinase JAK2 (Homo sapiens, UniProt O60674); test: Inhibition of JAK2 (unknown origin)
[9] = biological target: Hepatocyte growth factor receptor (Homo sapiens, UniProt P08581); test: Inhibition of MET (unknown origin)
[10] = biological target: T3, Interleukin-1 receptor-associated kinase 4 (Homo sapiens, UniProt Q9NWZ3); test: Inhibition of IRAK4 (unknown origin)
T3 sequence (Q9NWZ3 whole entry): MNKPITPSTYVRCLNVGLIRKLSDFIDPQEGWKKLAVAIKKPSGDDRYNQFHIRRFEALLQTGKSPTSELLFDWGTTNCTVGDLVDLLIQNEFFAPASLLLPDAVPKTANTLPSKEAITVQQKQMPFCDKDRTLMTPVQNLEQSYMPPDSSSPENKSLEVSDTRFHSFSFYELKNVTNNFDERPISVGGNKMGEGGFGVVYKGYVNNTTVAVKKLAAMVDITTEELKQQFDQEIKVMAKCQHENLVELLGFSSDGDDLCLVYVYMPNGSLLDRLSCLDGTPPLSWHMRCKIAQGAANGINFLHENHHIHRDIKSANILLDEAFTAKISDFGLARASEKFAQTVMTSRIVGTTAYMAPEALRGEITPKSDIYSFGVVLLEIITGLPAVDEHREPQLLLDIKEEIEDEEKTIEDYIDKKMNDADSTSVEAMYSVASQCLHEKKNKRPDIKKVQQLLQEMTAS

[11] = biological target: Phosphatidylinositol 4,5-bisphosphate 3-kinase catalytic subunit gamma isoform (Homo sapiens, UniProt P48736); test: Inhibition of PI3Kgamma (unknown origin)
[12] = biological target: Phosphatidylinositol 4,5-bisphosphate 3-kinase catalytic subunit alpha isoform (Homo sapiens, UniProt P42336); test: Inhibition of PI3Kalpha (unknown origin)
[13] = biological target: Serine/threonine-protein kinase PLK1 (Homo sapiens, UniProt P53350); test: Inhibition of PLK (unknown origin)
[14] = tested on: Influenza A virus; test: Antiviral activity against Influenza A virus A/PR/8/34 strain incubated with MDCK cells assessed as cell protection after 72 hrs by phenotypic cell protection assay; assay type: functional, organism-based; settings: A/Puerto Rico/8/1934(H1N1)
[15] = biological target: Cyclin-dependent kinase 2 (Homo sapiens, UniProt P24941); test: Inhibition of CDK2 (unknown origin)
[16] = biological target: cAMP-dependent protein kinase catalytic subunit alpha (Homo sapiens, UniProt P17612); test: Inhibition of PKAa (unknown origin)
[17] = biological target: Proto-oncogene tyrosine-protein kinase Src (Homo sapiens, UniProt P12931); test: Inhibition of SRC (unknown origin)
[18] = biological target: Tyrosine-protein kinase SYK (Homo sapiens, UniProt P43405); test: Inhibition of SYK (unknown origin)
[19] = biological target: Glycogen synthase kinase-3 (Homo sapiens, UniProt P49840+P49841); test: Inhibition of GSK3 (unknown origin); assay type: protein assay
[20] = biological target: Mitogen-activated protein kinase 10 (Homo sapiens, UniProt P53779); test: Inhibition of JNK3 (unknown origin)

Chain of Phosphatidylinositol 4,5-bisphosphate 3-kinase catalytic subunit alpha isoform (P42336 whole entry, canonical isoform): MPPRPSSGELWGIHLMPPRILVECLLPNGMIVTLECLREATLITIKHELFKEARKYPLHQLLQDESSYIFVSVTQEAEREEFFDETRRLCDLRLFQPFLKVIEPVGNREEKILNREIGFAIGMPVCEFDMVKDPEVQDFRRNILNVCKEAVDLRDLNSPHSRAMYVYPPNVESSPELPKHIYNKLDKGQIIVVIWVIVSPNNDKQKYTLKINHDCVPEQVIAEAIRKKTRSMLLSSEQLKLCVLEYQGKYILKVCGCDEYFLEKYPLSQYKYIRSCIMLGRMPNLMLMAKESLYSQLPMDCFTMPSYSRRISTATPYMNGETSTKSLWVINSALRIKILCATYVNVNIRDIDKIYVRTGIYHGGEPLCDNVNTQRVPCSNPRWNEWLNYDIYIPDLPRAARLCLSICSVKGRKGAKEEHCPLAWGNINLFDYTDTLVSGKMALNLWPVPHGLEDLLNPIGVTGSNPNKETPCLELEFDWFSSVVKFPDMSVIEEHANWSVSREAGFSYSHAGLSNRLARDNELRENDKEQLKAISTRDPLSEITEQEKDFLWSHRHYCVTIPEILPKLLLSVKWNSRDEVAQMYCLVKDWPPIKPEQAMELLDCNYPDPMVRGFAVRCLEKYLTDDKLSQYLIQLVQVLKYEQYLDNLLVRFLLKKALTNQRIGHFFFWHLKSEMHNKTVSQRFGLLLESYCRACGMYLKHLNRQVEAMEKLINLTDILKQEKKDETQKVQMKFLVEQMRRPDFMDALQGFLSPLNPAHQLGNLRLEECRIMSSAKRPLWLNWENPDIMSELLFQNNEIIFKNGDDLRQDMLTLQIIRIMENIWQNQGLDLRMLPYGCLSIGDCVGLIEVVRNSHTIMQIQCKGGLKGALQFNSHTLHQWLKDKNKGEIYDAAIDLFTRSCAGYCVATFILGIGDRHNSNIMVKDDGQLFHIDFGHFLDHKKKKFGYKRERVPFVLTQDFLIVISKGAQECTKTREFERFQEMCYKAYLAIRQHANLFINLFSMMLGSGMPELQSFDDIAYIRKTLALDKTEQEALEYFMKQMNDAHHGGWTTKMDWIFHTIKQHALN
Chain of Vascular endothelial growth factor receptor 2 (P35968 whole entry, canonical isoform): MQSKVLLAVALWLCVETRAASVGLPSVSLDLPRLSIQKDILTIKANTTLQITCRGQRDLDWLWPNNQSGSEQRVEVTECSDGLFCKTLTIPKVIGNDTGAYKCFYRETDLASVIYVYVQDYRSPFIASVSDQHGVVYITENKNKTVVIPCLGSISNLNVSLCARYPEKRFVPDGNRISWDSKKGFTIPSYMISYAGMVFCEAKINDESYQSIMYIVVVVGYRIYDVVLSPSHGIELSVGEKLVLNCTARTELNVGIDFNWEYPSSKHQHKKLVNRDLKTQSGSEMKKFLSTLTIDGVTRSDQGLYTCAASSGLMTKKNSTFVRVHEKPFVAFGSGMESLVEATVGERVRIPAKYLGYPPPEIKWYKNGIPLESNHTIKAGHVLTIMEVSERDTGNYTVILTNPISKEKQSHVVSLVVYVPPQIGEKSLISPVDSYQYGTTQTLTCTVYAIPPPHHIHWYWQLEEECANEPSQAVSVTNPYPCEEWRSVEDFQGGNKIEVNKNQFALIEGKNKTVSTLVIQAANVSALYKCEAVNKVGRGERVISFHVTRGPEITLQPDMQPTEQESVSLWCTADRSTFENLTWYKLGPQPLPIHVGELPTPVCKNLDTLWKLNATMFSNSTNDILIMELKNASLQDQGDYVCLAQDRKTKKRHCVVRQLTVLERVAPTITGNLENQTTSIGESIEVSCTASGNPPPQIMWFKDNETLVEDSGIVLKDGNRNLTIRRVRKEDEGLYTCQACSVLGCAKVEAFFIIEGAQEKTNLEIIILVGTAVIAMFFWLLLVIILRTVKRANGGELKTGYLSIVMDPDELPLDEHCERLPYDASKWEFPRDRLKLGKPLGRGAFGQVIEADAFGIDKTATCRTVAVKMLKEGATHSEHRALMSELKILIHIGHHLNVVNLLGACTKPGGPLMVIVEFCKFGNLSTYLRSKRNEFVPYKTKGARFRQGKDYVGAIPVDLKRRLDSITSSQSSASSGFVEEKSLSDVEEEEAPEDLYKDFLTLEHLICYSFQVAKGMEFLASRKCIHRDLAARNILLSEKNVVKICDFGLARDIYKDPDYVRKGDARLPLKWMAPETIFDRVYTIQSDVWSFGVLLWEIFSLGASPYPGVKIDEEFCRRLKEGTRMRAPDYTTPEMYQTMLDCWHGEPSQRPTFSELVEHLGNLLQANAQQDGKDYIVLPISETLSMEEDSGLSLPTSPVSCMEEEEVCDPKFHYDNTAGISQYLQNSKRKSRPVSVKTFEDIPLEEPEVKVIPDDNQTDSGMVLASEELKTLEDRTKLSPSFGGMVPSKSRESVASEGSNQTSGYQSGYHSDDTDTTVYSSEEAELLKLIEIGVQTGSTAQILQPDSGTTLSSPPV
Chain of Serine/threonine-protein kinase PLK1 (P53350 whole entry): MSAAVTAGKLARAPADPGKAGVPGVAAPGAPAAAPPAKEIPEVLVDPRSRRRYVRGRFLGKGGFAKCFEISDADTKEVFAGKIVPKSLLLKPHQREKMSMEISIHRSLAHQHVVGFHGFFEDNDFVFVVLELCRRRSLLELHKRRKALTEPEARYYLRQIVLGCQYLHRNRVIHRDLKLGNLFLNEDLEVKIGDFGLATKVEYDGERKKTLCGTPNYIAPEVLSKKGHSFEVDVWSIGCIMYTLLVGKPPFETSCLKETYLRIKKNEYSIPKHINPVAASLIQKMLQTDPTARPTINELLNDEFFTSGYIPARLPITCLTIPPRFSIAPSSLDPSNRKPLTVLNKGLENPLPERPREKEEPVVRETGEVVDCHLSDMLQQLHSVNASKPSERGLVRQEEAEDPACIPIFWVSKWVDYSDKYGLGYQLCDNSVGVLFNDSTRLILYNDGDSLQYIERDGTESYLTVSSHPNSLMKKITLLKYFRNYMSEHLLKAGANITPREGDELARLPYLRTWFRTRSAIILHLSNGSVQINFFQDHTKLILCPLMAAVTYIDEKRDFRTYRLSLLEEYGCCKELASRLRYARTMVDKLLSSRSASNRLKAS
Chain of Phosphatidylinositol 4,5-bisphosphate 3-kinase catalytic subunit gamma isoform (P48736 whole entry, canonical isoform): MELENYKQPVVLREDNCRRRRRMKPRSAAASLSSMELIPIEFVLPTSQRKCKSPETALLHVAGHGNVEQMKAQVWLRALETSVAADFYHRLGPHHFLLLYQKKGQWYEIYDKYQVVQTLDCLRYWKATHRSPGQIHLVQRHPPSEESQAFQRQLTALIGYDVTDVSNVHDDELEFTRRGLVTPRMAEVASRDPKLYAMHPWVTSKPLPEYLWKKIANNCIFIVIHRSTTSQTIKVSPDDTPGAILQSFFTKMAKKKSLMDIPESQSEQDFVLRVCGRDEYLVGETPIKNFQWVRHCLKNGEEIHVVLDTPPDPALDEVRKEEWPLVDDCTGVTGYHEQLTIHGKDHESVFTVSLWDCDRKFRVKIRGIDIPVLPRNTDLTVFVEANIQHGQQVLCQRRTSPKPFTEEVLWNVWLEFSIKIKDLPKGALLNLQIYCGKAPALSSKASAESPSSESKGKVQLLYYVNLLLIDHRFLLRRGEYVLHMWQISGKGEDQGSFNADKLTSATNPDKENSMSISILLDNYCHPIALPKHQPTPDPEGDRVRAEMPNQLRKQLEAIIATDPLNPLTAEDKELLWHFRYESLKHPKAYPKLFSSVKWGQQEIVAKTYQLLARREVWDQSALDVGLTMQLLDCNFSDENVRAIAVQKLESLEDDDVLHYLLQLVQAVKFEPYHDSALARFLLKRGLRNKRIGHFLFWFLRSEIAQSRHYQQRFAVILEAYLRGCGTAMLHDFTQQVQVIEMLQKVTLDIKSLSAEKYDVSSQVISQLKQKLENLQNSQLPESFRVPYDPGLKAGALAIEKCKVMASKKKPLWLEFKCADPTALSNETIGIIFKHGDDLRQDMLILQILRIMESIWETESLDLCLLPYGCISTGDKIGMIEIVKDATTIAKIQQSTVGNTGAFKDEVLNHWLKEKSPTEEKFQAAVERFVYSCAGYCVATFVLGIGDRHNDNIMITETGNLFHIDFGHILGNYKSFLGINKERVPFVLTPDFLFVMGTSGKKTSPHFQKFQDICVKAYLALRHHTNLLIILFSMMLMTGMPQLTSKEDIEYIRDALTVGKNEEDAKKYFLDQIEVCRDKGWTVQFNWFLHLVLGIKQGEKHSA
Chain of Proto-oncogene tyrosine-protein kinase Src (P12931 2-536 limits assumed): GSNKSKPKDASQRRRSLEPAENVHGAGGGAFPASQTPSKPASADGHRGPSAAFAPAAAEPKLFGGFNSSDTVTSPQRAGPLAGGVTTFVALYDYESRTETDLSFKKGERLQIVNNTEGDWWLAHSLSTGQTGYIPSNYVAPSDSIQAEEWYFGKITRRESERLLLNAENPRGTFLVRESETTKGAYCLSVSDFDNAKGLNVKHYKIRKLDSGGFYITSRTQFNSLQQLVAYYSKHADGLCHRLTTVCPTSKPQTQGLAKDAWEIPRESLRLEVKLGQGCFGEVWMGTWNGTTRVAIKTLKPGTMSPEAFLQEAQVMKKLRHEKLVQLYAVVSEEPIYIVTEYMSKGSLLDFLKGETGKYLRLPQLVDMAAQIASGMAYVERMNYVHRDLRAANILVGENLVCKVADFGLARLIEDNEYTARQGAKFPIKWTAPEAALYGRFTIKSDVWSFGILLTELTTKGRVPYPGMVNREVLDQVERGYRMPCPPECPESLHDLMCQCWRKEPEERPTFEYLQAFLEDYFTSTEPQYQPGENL

O=c1[nH]c(=O)n(C[C@H]2C3CCC(CC3)[C@@H]2Nc2nc(-c3c[nH]c4ncc(F)cc34)ncc2F)o1 (mixture of isomers)
Ki [1]: 2 µM | Ki [2]: 0.21 µM | Ki [3]: > 4 µM | Ki [4]: > 4 µM | Ki [5]: 0.18 µM | EC50 [6]: 0.036 µM | EC99 [6]: 0.21 µM | pKa [7]: 5.2 | Ki [8]: 0.27 µM | Ki [9]: > 4 µM | Ki [10]: > 4 µM | Ki [11]: 0.63 µM | Ki [12]: 1.5 µM | Ki [13]: 1.1 µM | IC50 [14]: 0.048 µM | Ki [15]: > 4 µM | Ki [16]: > 4 µM | Ki [17]: > 4 µM | Ki [18]: > 4 µM | Ki [19]: 0.023 µM | Ki [20]: > 4 µM

From ChEMBL document CHEMBL3399966, “Isosteric replacements of the carboxylic acid of drug candidate VX-787: Effect of charge on antiviral potency and kinase activity of azaindole-based influenza PB2 inhibitors” (Bioorg Med Chem Lett, 2015)
